Two compounds from patent US7078063B2, “Water soluble extract from plant of Solanum genus and the preparation process thereof, and pharmaceutical composition containing the water soluble extract” (G & E Herbal Biotechnology Co., LTD., priority 2003, dated 2006) can be followed below.

One series in a line: dissolving in water. The series is classed as physicochemical.
In another series the test system is H441. Briefly: MTS tetrazolium salt cytotoxicity assay. The series is classed as cell-based, human. As to conditions: 12 hrs. As to the method:
Hep3B was incubated in Dulbecco's Modified Eagle's medium (DMEM), while H441 and MCF-7 were incubated in RPMI-1640, both of the media containing 10% fetal bovine serum and 40 mg/L gentamycin.
The cytotoxicity of cancer cells was determined using tetrazolium salt assay (MTS, Mosmann. T., 1983, Immunol. Meth., 65, 55–63), which was conducted for the calorimetric determination of cell viability according to the manufacturer's procedures (CellTiter 96™ AQ, Promega, Madison, USA).
Cells were seeded at 1×10^4 cells/well in a 96-well plate and incubated in 5% CO2 incubator at 37° C. for at least 16 hrs. The water-soluble extract from Solanum incanum L. was dissolved in sterile injection water to give different test concentrations, which were added to each cancer-cell incubating medium in the well, and allowed to react for 12 hrs. 20 μl MTS was then added to each well, and the solution was allowed to react for 3 hrs. Upon completion of the reaction, absorbency in each well was determined at 490 nm by using ELISA reader 312e, Bio-TEK. Each value was expressed as means ±SD from three experiments.
Cytotoxicity was determined by MTS tetrazolium salt assay disclosed in Pharmacological assay 1. […] Data were expressed as means ±SD from three experiments.

The mark [1] stands for this setting: dried powders, without being pre-treated with DMSO.
Where [2] appears, read: purified from the water-soluble extract by HPLC.

For the compound `C[C@@H]1CC[C@@]2(NC1)O[C@H]1C[C@H]3[C@@H]4CC=C5C[C@@H](O[C@@H]6O[C@H](CO)[C@@H](O[C@@H]7O[C@@H](C)[C@H](O)[C@@H](O)[C@H]7O)[C@H](O)[C@H]6O[C@@H]6O[C@@H](C)[C@H](O)[C@@H](O)[C@H]6O)CC[C@]5(C)[C@H]4CC[C@]3(C)[C@H]1[C@@H]2C` [solamargine], the dissolving in water entry in the series “dissolving in water” (setting [1]) was “could not dissolve in water”; in “dissolving in water” (setting [2]) it was “directly dissolved in water”. In the series with H441, the “inhibiting the growth of H441” value was “effectively inhibited”.
As for `C[C@@H]1CC[C@@]2(NC1)O[C@H]1C[C@H]3[C@@H]4CC=C5C[C@@H](O[C@@H]6O[C@H](CO)[C@H](O)[C@H](O[C@@H]7O[C@H](CO)[C@@H](O)[C@H](O)[C@H]7O)[C@H]6O[C@@H]6O[C@@H](C)[C@H](O)[C@@H](O)[C@H]6O)CC[C@]5(C)[C@H]4CC[C@]3(C)[C@H]1[C@@H]2C` [solasonine], the figures for the dissolving in water entry in “dissolving in water” (setting [1]) and in the series “dissolving in water” (setting [2]) were “could not dissolve in water” and “directly dissolved in water”, respectively. In addition, the “inhibiting the growth of H441” value with H441 is recorded as “effectively inhibited”.
